Assay: Lipophilicity, log D of compound at pH 7.4 by UPLC-MS/MS analysis
Assay type: physicochemical
Conditions: buffer

logD | Compound
0.7 | COC(=O)[C@@H]1CSCc2ccccc2C(=O)OC[C@H](NC(=O)[C@@H]2CCCN2C(C)=O)CN1
0.65 | COC(=O)[C@H]1CSCc2ccccc2C(=O)OC[C@H](NC(=O)[C@@H]2CCCN2C(C)=O)CN1
0.43 | COC(=O)[C@@H]1CSCc2ccccc2C(=O)OC[C@@H](NC(=O)[C@@H]2CCCN2C(C)=O)CN1
0.6 | COC(=O)[C@H]1CSCc2ccccc2C(=O)OC[C@@H](NC(=O)[C@@H]2CCCN2C(C)=O)CN1
